Literature values in patent publication US4699782A (Delalande S.A., priority 1983, dated 1987).

Details: human, in vivo; cited from earlier work

For `C#CCN(C)CCCOc1ccc(Cl)cc1Cl` [Clorgyline], the “dose of Tyramine from which hypertensive effects were recorded” value is given as no less than 6 mg.
